Test results reported in PMC5942357 (European Journal of Clinical Pharmacology, 2018).

Columns and labels:
[1] = Pulmonary function tests (DLCO, FEV1, FVC), change from baseline; assay type: in vivo, human
Protocol: Participants were under continuous medical supervision during each admission period (up to 48 h post-dose), and safety assessments were made at regular intervals throughout each period and until the end of follow-up. Assessment of safety was conducted by monitoring AEs, clinical laboratory tests (haematology, clinical chemistry and urinalysis), vital signs (including pulse oximetry), 12-lead ECGs, telemetry, physical examinations and pulmonary function tests (forced expiratory volume in 1 s [FEV1], FVC, diffusing capacity of the lung for carbon monoxide).

αvβ6 integrin = conditions: cited from earlier work
[2] = test system: αvβ6 integrin-mediated TGFβ activation; conditions: in vitro experiments; cited from earlier work
[3] = IPF patients treated; cited from earlier work

Which “DLCO, mean change from baseline to 24 h post dose” value (“DLCO, mean change from baseline” for short) ([1]; 1 mcg, N=6) does the source give for `Cc1cc(C)n(-c2cccc([C@H](CC(=O)O)CN3CC[C@@H](CCc4ccc5c(n4)NCCC5)C3)c2)n1` [GSK3008348] here?
The value was -0.153 L.

What about the “FEV1, mean change from baseline to 24 h post dose” value (“FEV1, mean change from baseline” for short) ([1]; 1 mcg, N=6) of the same molecule?
Its value is -0.043 L.

And the “FVC, mean change from baseline to 24 h post dose” value (“FVC, mean change from baseline” for short) ([1]; 1 mcg, N=6)?
Its value is -0.06 L.

And the “DLCO, mean change from baseline” value ([1]; 3 mcg, N=6)?
The value was 0.938 L.

What about the “FEV1, mean change from baseline” value ([1]; 3 mcg, N=6) of the same molecule?
The value was -0.007 L.

What about the “FVC, mean change from baseline” value ([1]; 3 mcg, N=6) of the same molecule?
The value was 0.125 L.

And the “DLCO, mean change from baseline” value ([1]; 10 mcg, N=6)?
The value was 0.113 L.

And the “FEV1, mean change from baseline” value ([1]; 10 mcg, N=6)?
Its value is -0.053 L.

And the “FVC, mean change from baseline” value ([1]; 10 mcg, N=6)?
Its value is -0.105 L.

And the “DLCO, mean change from baseline” value ([1]; 30 mcg, N=6)?
The value was -0.168 L.

What about the “FEV1, mean change from baseline” value ([1]; 30 mcg, N=6) of the same molecule?
The value was 0.085 L.

And the “FVC, mean change from baseline” value ([1]; 30 mcg, N=6)?
Its value is 0.033 L.

What about the “DLCO, mean change from baseline” value ([1]; 100 mcg, N=6) of the same molecule?
The value was -0.862 L.

And the “FEV1, mean change from baseline” value ([1]; 100 mcg, N=6)?
Its value is 0.023 L.

And the “FVC, mean change from baseline” value ([1]; 100 mcg, N=6)?
The value was 0.12 L.

What about the “DLCO, mean change from baseline” value ([1]; 300 mcg, N=6) of the same molecule?
The value was 0.562 L.

And the “FEV1, mean change from baseline” value ([1]; 300 mcg, N=6)?
Its value is -0.072 L.

What about the “FVC, mean change from baseline” value ([1]; 300 mcg, N=6) of the same molecule?
The value was -0.078 L.

And the “DLCO, mean change from baseline” value ([1]; 1000 mcg, N=12)?
The value was -0.293 L.

What about the “FEV1, mean change from baseline” value ([1]; 1000 mcg, N=12) of the same molecule?
Its value is -0.027 L.

What about the “FVC, mean change from baseline” value ([1]; 1000 mcg, N=12) of the same molecule?
The value was -0.014 L.

And the “DLCO, mean change from baseline” value ([1]; 3000 mcg, N=11)?
The value was 0.547 L.

What about the “FEV1, mean change from baseline” value ([1]; 3000 mcg, N=11) of the same molecule?
Its value is -0.025 L.

And the “FVC, mean change from baseline” value ([1]; 3000 mcg, N=11)?
The value was -0.094 L.

What about the “Individual change from baseline in FEV1 and FVC over time between treatment groups” value ([1]; all dose levels) of the same molecule?
Its value is “did not show clinically significant differences”.

And the “Binding affinity for the αvβ6 integrin” value (αvβ6 integrin)?
The value was “high affinity”.

Which “Effects on αvβ6 integrin-mediated TGFβ activation” value [2] does the source give for `Cc1ccc(=O)n(-c2ccccc2)c1` [pirfenidone] here?
The value was “limited effects”.

And the “Discontinuation due to adverse events (AEs), patients” value [3]?
Its value is “approximately 30%”.

With `COC(=O)c1ccc2c(c1)NC(=O)/C2=C(\Nc1ccc(N(C)C(=O)CN2CCN(C)CC2)cc1)c1ccccc1` [nintedanib] as the molecule, how does the “Effects on αvβ6 integrin-mediated TGFβ activation” value [2] read?
Its value is “limited effects”.

And the “Discontinuation due to adverse events (AEs), patients” value [3]?
The value was roughly 20%.
